Experiments:
[1] = tested on: L1210 Mouse Leukemia; test: Antitumor activity against L1210 mouse leukemia inoculated i.p. in mice; format: in vivo, CDF₁ mouse; settings: for Survival days (mean ± standard deviation) / T/C (%): CDF₁ mice; for Survival rate: living mice on the 30th day / mice in group
Experimental: Approximately 10⁵ cells of mouse leukemia L1210 which had been subcultured in DBA/2 mice were inoculated into the abdominal cavity of CDF₁ mouse (male, 6 weeks old, each group consisting of 6 to 10 mice). […] CDDP and CBDCA were tested as the positive control. Each complex tested was used in the form of a solution or suspension in 0.05% "Tween 80"-saline or in distilled water. Antitumor activity was evaluated based on the T/C value, calculated according to the following formula: [formula] The number of living mice was also recorded on the 30th day.

[2] = tested on: Slc:ICR mice; test: Acute toxicity test in mice (LD50, Miller-Tainter method); format: in vivo; settings: intraperitoneal, Slc:ICR mice (male), death rate on the 14th day
Experimental: The acute toxicity test of the compounds of the present invention to mice were carried out by using CDDP as the control. Platinum complexes to be tested was administered intraperitoneally to Slc:ICR mice (male, 5 weeks old, 6 mice/group). Each complex was used in the form of a solution or suspension in a 0.05% "Tween 80" - saline. The LD₅₀ value was calculated by the Miller-Tainter method from the death rate on the 14th day from the date of the administration.

[3] = dose 1 mg/kg i.p. on Day 1, 5 and 9
[4] = dose 10 mg/kg i.p. on Day 1, 5 and 9
[5] = dose 25 mg/kg i.p. on Day 1, 5 and 9
[6] = dose 50 mg/kg i.p. on Day 1, 5 and 9
[7] = dose 100 mg/kg i.p. on Day 1, 5 and 9
[8] = dose 200 mg/kg i.p. on Day 1, 5 and 9
[9] = dose 5 mg/kg i.p. on Day 1, 5 and 9

Substance | Survival days (mean ± standard deviation) [1, 3] [days] | T/C (%) [1, 3] [%] | Survival days (mean ± standard deviation) [1, 4] [days] | T/C (%) [1, 4] [%] | Survival days (mean ± standard deviation) [1, 5] [days] | T/C (%) [1, 5] [%] | Survival days (mean ± standard deviation) [1, 6] [days] | T/C (%) [1, 6] [%] | Survival days (mean ± standard deviation) [1, 7] [days] | T/C (%) [1, 7] [%] | Survival days (mean ± standard deviation) [1, 8] [days] | T/C (%) [1, 8] [%] | Survival rate [1, 3] | Survival rate [1, 4] | Survival rate [1, 5] | Survival rate [1, 6] | Survival rate [1, 7] | Survival rate [1, 8] | LD₅₀ Value [2] [mg/kg] | further results
[Pt(trans-ℓ-1,2-diaminocyclohexane)](3-acetyl-6-methyl-2H-pyran-2,4(3H)-dione)(NO₃)·H₂O [Example 14] | 8.2 ± 0.4 | 98 | 11.3 ± 0.8 | 135 | 19.0 ± 8.5 | 226 | 18.0 ± 6.2 | 214 | 9.5 ± 1.2 | 113 | 5.0 | 60 | 0/6 | 0/6 | 2/6 | 1/6 | 0/6 | 0/6 | 73 | 
[Pt(trans-ℓ-1,2-diaminocyclohexane)](3-acetyl-6-methyltetrahydropyran-2,4-dione) (C₃H₇COO)·H₂O [Example 5] | 8.8 ± 1.6 | 104 | 10.2 ± 1.6 | 120 | 11.8 ± 1.7 | 139 | 16.3 ± 5.0 | 192 | 14.2 ± 5.0 | 167 |  |  | 0/6 | 0/6 | 0/6 | 0/6 | 0/6 |  | 111 | 
[Pt(trans-ℓ-1,2-diaminocyclohexane)](3-acetyl-6-methyltetrahydropyran-2,4-dione)(CH₃COO)·H₂O [Example 3] | 9.2 ± 1.0 | 110 | 14.0 ± 2.6 | 167 | 23.0 ± 6.4 | 274 | 15.2 ± 4.1 | 181 | 7.7 ± 1.5 | 91 | 3.0 ± 2.0 | 36 | 0/6 | 0/6 | 2/6 | 0/6 | 0/6 | 0/6 | 61 | Survival days (mean ± standard deviation) [1, 9]: 12.8 ± 3.0 days; T/C (%) [1, 9]: 152%; Survival rate [1, 9]: 0/6

From patent EP0337459A2, “Platinum complex, process for preparing same and antitumor agent” (TORAY INDUSTRIES, INC., priority 1988, dated 1989)
